Results as given in patent US7015241B2, “Appetite-stimulating agents and remedies for anorexia” (Eisai Co., Ltd., priority 2001, dated 2006).

What was measured:
BDF1 mice = assay: Appetite-stimulating and body weight-increasing effects, intraperitoneal administration once a day for 15 days; assay type: in vivo, mouse; settings: BDF1 mice (7 weeks old, female), i.p. once a day for 15 days, vs control group; for body weight: FIG. 1; for food intake: FIG. 2
Experimental: (§1) A subjective compound was suspended in saline containing 3.5% dimethylsulfoxide and 6.5% Tween 80, and intraperitoneally administered to BDF1 mice (7 weeks old, female) in a given amount once a day for 15 days (day 0 to day 14). To mice of a control group, saline containing 3.5% dimethylsulfoxide and 6.5% Tween 80 was intraperitoneally administered. Administration was conducted at 1 p.m. every day, and the body weight (day 0 to day 15) and the food intake since the preceding day (day 1 to day 15) were weighed immediately before the administration. The experiments were conducted using 5 mice per group for each of the drug-administered group and the control group. The numbers of the compound examples are the same as in the list described above (hereinafter, the same applies).

mice = assay: Toxicity observation on successive administration to mice for 15 days; assay type: in vivo; settings: 100 mg/kg and 200 mg/kg successively for 15 days
Experimental: as §1
Thus, it is considered that the compound represented by the general formula (I) has low toxicity.

Interleukin-1-beta = assay: Gene expression analysis of white adipose tissues by GeneChip (Affymetrix) Murine Genome U74A; assay type: in vivo, mouse; settings: day 15, 200 mg/kg i.p. once a day for 15 days, BDF1 mice, Accession M15131
Experimental: (§2) The compound of the Compound 17 was suspended in saline containing 3.5% dimethylsulfoxide and 6.5% Tween 80, and intraperitoneally administered to BDF1 mice (7 weeks old, female) in an amount of 200 mg/kg once a day for 15 days (day 0 to day 14). To mice of a control group, saline containing 3.5% dimethylsulfoxide and 6.5% Tween 80 was intraperitoneally administered. The experiments were conducted using 5 mice per group for each of the drug-administered group and the control group. On day 15, white adipose tissues were collected from the mice of the drug-administered group and the control group, and were examined for expression levels of mRNA using GeneChip (Affymetrix) Murine Genome U74A. The experimental operation was conducted in accordance with GeneChip Expression Analysis Technical Manual, and the quantitative analysis was conducted using GeneChip Software.

Interleukin-6 = assay: as above; assay type: in vivo, mouse; settings: day 15, 200 mg/kg i.p. once a day for 15 days, BDF1 mice, Accession X54542
Experimental: as §2

[1] = system: griPGHS (Glucocorticoid-regulated inflammatory prostaglandin G/H synthase); assay: as above; assay type: in vivo, mouse; settings: day 15, 200 mg/kg i.p. once a day for 15 days, BDF1 mice, Accession M88242
Experimental: as §2

| Compound | body weight (BDF1 mice) | food intake (BDF1 mice) | body weight increase (mice) | condition of the mice (mice) | toxicity (mice) | Expression level ratio (drug-administered group/control group), Interleukin-1-beta mRNA (Interleukin-1-beta) | Expression level ratio (drug-administered group/control group), Interleukin-6 mRNA (Interleukin-6) | Expression level ratio (drug-administered group/control group), griPGHS mRNA [1] |
| --- | --- | --- | --- | --- | --- | --- | --- | --- |
| N#Cc1ccc(S(=O)(=O)Nc2cccc3c(Cl)c[nH]c23)cc1 [Compound 10, N-(3-Chloro-1H-indol-7-yl)-4-cyanobenzenesulfonamide] | increased | increased | body weight increase depending on dose | quite normal condition | no observation indicating toxicity | – | – | – |
| N#Cc1c[nH]c2c(NS(=O)(=O)c3cccc(Cl)c3)cccc12 [Compound 17, 3-Chloro-N-(3-cyano-1H-indol-7-yl)benzenesulfonamide] | increased | increased | body weight increase depending on dose | quite normal condition | no observation indicating toxicity | 22% | 24% | 26% |
| N#Cc1cccc(S(=O)(=O)Nc2cccc3c(C#N)c[nH]c23)c1 [Compound 51, 3-Cyano-N-(3-cyano-1H-indol-7-yl)benzenesulfonamide] | increased | increased | body weight increase depending on dose | quite normal condition | no observation indicating toxicity | – | – | – |
| Cc1ccc(NS(=O)(=O)c2cccc(C#N)c2)c2[nH]cc(C#N)c12 [Compound 94, 3-Cyano-N-(3-cyano-4-methyl-1H-indol-7-yl)-benzenesulfonamide] | increased | increased | body weight increase depending on dose | quite normal condition | no observation indicating toxicity | – | – | – |
